The source made the active and inactive calls. The calls are words filed in the database; no cut-off is given here.
How the values were obtained:
Mus musculus [1] = assay: (§1) Protective activity against LPS induced sepsis in BALB/c mouse model of acute liver injury assessed as reduction in AST level in serum at 1.25 to 5 mg/kg, IG administered once a day for 3 days followed by LPS stimulation for 12 hrs starting from 2 hrs post last dose by ELISA; format: functional, organism-based; details: dose 1.25-5 mg/kg, time 86.0 hrs
Mus musculus [2] = assay: Antiinflammatory activity in BALB/c mouse model of LPS induced sepsis assessed as inhibition of IFN-beta production at 1.25 to 5 mg/kg, IG administered once a day for 3 days followed by LPS stimulation for 12 hrs starting from 2 hrs post last dose by qRT-PCR analysis; format: functional, organism-based; details: dose 1.25-5 mg/kg, time 86.0 hrs
[3] = molecular target: T1, Stimulator of interferon genes protein (Mus musculus) (UniProt Q3TBT3); assay: Binding affinity to STING in mouse RAW264.7 cells assessed as thermal stabilization at 46 degree C measured for 8 hrs by cellular thermal shift assay; format: cell-based; details: dose 0-20 µM
T1 sequence (whole entry): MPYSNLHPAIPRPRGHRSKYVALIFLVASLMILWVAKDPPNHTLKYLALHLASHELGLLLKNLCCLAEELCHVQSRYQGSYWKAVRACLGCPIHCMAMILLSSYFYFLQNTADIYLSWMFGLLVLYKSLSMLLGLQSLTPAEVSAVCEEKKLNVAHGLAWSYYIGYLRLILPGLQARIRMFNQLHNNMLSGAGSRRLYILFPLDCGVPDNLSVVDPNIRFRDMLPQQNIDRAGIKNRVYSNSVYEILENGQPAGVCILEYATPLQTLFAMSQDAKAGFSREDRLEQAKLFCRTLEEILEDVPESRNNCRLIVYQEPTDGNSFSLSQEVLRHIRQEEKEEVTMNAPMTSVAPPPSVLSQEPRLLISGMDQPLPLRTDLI

[4] = molecular target: T2, Inhibitor of nuclear factor kappa-B kinase subunit beta (Mus musculus) (UniProt O88351); assay: Inhibition of IkappaB phosphorylation in LPS-induced mouse RAW264.7 cells preincubated with compound for 2 hrs followed by LPS stimulation and measured after 6 hrs by Western blot analysis; format: cell-based; details: dose 0.5-2 µM, time 8.0 hrs
T2 sequence (whole entry): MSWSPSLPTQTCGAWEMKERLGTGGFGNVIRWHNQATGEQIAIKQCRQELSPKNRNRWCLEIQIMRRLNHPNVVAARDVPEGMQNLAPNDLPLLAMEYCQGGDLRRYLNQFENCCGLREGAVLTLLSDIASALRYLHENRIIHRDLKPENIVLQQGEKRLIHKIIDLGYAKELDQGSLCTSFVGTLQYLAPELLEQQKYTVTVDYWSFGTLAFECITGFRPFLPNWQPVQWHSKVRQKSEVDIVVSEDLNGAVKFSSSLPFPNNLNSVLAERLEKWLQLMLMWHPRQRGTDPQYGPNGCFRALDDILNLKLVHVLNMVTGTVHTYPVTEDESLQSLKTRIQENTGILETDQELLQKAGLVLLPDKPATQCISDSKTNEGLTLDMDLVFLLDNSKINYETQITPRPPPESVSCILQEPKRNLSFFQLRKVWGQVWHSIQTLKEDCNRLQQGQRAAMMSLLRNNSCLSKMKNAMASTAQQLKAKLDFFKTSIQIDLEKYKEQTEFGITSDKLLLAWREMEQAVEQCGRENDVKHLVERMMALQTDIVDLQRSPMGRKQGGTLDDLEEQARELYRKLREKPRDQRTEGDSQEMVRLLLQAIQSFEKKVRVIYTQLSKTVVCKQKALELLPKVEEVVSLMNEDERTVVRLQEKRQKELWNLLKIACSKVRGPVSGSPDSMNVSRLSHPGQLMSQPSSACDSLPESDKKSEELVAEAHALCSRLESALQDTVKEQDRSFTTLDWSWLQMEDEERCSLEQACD

[5] = molecular target: T3, Interferon regulatory factor 3 (Mus musculus) (UniProt P70671); assay: Inhibition of IRF3 phosphorylation in LPS-induced mouse RAW264.7 cells preincubated with compound for 2 hrs followed by LPS stimulation and measured after 6 hrs by Western blot analysis; format: cell-based; details: dose 0.5-2 µM, time 8.0 hrs
T3 sequence (whole entry): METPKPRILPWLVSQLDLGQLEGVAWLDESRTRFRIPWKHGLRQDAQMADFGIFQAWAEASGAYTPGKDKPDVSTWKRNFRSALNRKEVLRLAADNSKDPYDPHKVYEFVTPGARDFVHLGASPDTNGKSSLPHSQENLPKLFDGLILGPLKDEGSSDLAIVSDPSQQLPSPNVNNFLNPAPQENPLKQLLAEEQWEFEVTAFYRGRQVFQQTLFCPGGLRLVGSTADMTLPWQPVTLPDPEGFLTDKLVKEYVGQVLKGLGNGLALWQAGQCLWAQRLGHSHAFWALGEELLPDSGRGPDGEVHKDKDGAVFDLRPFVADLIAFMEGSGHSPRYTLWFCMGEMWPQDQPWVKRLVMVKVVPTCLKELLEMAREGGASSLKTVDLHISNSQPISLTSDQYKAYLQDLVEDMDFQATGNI

[6] = MRT (0 to t) in Sprague-Dawley rat administered intragastrically; format: ADME; details: in vivo, po, route ig
Mus musculus [7] = assay: as §1, with “improvement” for “reduction”, “blurred boundaries” for “AST level”, “liver tissue” for “serum”, “hematoxylin and eosin staining based analysis” for “ELISA”; format: functional, organism-based; details: dose 1.25-5 mg/kg, time 86.0 hrs
[8] = MRT(0 to infinity) in Sprague-Dawley rat administered intragastrically; format: ADME; details: in vivo, po, route ig
[9] = AUC(0 to t) in Sprague-Dawley rat administered intragastrically; format: ADME; parameters: route ig; details: in vivo, po
[10] = molecular target: T1, Stimulator of interferon genes protein (Mus musculus); assay: (§2) In vivo inhibition of STING in BALB/c mouse model of LPS induced sepsis assessed as inhibition of upregulation of phosphorylated p65 protein expression at 1.25 to 5 mg/kg, IG administered once a day for 3 days followed by LPS stimulation for 12 hrs starting from 2 hrs post last dose by Western blot analysis; format: functional, organism-based; details: dose 1.25-5 mg/kg, time 86.0 hrs
[11] = molecular target: T1, Stimulator of interferon genes protein (Mus musculus); assay: as §2, with “TBK1 […]” for “p65 protein”; format: functional, organism-based; details: dose 1.25-5 mg/kg, time 86.0 hrs
RAW264.7 [12] = assay: Anti inflammatory activity in LPS-induced mouse RAW264.7 cells assessed as inhibition of NO production at 5 uM preincubated with compound for 2 hrs followed by LPS stimulation and measured after 24 hrs by griess reagent based assay relative to control; format: functional; details: time 26 hrs
[13] = Half life in Sprague-Dawley rat administered intragastrically; format: ADME; details: in vivo, po, route ig
Mus musculus [14] = assay: Anti-sepsis activity against BALB/c mouse model of LPS induced sepsis assessed as reduction in STING protein expression in liver at 1.25 to 5 mg/kg, IG administered once a day for 3 days followed by LPS stimulation for 12 hrs starting from 2 hrs post last dose by Western blot analysis; format: functional, organism-based; details: dose 1.25-5 mg/kg, time 86.0 hrs
[15] = AUC(0 to infinity) in Sprague-Dawley rat administered intragastrically; format: ADME; parameters: route ig; details: in vivo, po
[16] = molecular target: T1, Stimulator of interferon genes protein (Mus musculus); assay: as §2, with “IkappaB” for “p65”; format: functional, organism-based; details: dose 1.25-5 mg/kg, time 86.0 hrs
RAW264.7 [17] = assay: Anti inflammatory activity in LPS-induced mouse RAW264.7 cells assessed as suppression of IL-6 levels at 0.5 to 2 uM preincubated with compound for 2 hrs followed by LPS stimulation for 6 hrs by ELISA method; format: functional, cell-based; details: dose 0.5-2 µM, time 8.0 hrs
[18] = Cytotoxicity against mouse RAW264.7 cells assessed as cell viability at 40 uM measured after 24 hrs by MTT assay relative to control; format: toxicity, cell-based; details: read-out: Activity

For `C=CCONC(=O)CCSSCCC(=O)O[C@@H]1CC[C@@]2(C)[C@@H](CC[C@@]3(C)[C@H]2[C@H](O)C[C@H]2/C(=C(\CCC=C(C)C)C(=O)OCc4ccccc4)[C@@H](OC(C)=O)C[C@@]23C)[C@@H]1C`, the Activity (Mus musculus [1]) was “Active”, the inhibition (Mus musculus [2]) was “Active” and the Activity [3] was “Dose-Dependent Effect”. For the same compound, the inhibition [4] was “Dose-Dependent Effect”, the inhibition [5] was “Dose-Dependent Effect” and the MRT last [6] was 0.99 h. The Activity (Mus musculus [7]) was “Active”, the MRT inf [8] was 2.02 h and the AUC(0-t) [9] was 81.1 ng·h/mL. The inhibition [10] was “Active”, the inhibition [11] was “Active” and the inhibition at 5 µM (RAW264.7 [12]) was 78.7%. The half-life [13] was 1.11 h, the Activity (Mus musculus [14]) was “Active” and the AUC(0-inf) [15] was 136 ng·h/mL. For the same compound, the inhibition [16] was “Active”, the Activity (RAW264.7 [17]) was “Active” and the viability at 24 h, 40 µM [18] was 91.1%.
